For data set [1] the following is noted: in comparison to a 15 mg dose of hydrocodone.
For data set [2] the following is noted: after oral administration; cited from earlier work.
For data set [3] the following is noted: cited from earlier work.
For data set [4] the following is noted: cited from earlier work. The source holds these as a separate data set.
Data set [5] in a line: Example 4: six-way crossover study, naltrexone (12% w/w) on oxycodone-induced euphoria, with pulse oximetry (SpO2). It counts as in vivo, human. An excerpt:
As a safety component of this study, pulse oximetry was monitored routinely to monitor for signs and symptoms of oxycodone-induced respiratory depression.

The conditions of data set [6]: patients; versus equivalent dose of morphine; cited from earlier work.

Where a name gives a salt, the structure may show the parent alone. A value given as a limit tells only on which side of the number the result lay.

`COc1ccc2c3c1O[C@H]1[C@@H](O)C=C[C@H]4[C@@H](C2)N(C)CC[C@@]341` [codeine]: the equianalgesic calculated dose in data set [1] is 90.0 mg. Turning to `C[C@H]1[C@H]2Cc3ccc(O)cc3[C@]1(C)CCN2CC1CC1` [cyclazocine], the duration of action in data set [2] was approximately 24 h.

For `COc1ccc2c3c1OC1C(=O)CC[C@H]4[C@@H](C2)N(C)CC[C@]314` (stereo partly shown) [hydrocodone, 4,5-epoxy-3-methoxy-17-methylmorphinan-6-one], the equianalgesic calculated dose in data set [1] was 15.0 mg.

Consider `CN1CC[C@]23CCCC[C@H]2[C@H]1Cc1ccc(O)cc13` [levorphanol], for which the equianalgesic calculated dose in data set [1] is given as 1.8 mg. Take `CCC(=O)C(CC(C)N(C)C)(c1ccccc1)c1ccccc1` (stereo not shown) [methadone]: the equianalgesic calculated dose in data set [1] is 9.0 mg. On to `O=C1CC[C@@]2(O)[C@H]3Cc4ccc(O)c5c4[C@@]2(CCN3CC2CC2)[C@H]1O5` [naltrexone HCl, naltrexone hydrochloride], for which the solubility in water result in data set [3] is recorded as “about 100 mg/cc”. Take `O=C1CC[C@@]2(O)[C@H]3Cc4ccc(O)c5c4[C@@]2(CCN3CC2CC2)[C@H]1O5` [naltrexone]: in data set [4], the “time of absorption following oral administration (rapidly absorbed)” value was not above 1 h. In data set [4] (oral administration), the oral bioavailability is reported as 5-40%. In addition, the “effect on euphoric effects of oxycodone” value in data set [5] (oral oxycodone 60 mg + naltrexone 7.2 mg (12%)) is “abating the euphoric effects of oxycodone 60 mg”. Also, the “effect on respiratory depressant effects of oxycodone (SpO2, pulse oximetry)” value in data set [5] (oral oxycodone 60 mg + naltrexone 7.2 mg (12%) vs oxycodone 60 mg and placebo, opioid-experienced adult subjects) is “attenuated the respiratory depressant effects of oxycodone”. In addition, the duration of action in data set [2] is approximately 24 h. In the case of `COc1ccc2c3c1O[C@H]1C(=O)CC[C@@]4(O)[C@@H](C2)N(C)CC[C@]314` [oxycodone], in data set [1], the equianalgesic calculated dose is on record as 13.5 mg. In addition, the “extent and speed of onset of induced respiratory depression” value in data set [6] was “dose dependent and greater than an equivalent dose of morphine”.

The values are drawn from US20160045449A1, “Formulations and Methods for Attenuating Respiratory Depression Induced by Opioid Overdose” (Alpharma Pharmaceuticals LLC, priority 2010, published 2016).
